Experimental data: patent publication US20120003661A1, “METHODS AND DEVICES FOR THE SELECTIVE DETECTION OF MICROORGANISMS” (C3 JIAN, INC., priority 2010, published 2012)
Entries after “also recorded” stand apart in the source; their conditions may differ.

tested on: S. mutans; assay: MIC of antimicrobial peptides (Table 4); assay type: cell-based, Streptococcus mutans; settings: not given

Substance	Organism MIC
FIRKFLKKWLL [K-9]	S. mutans, 4 μM
FLKFLKKFFKKLKY [K-20]	S. mutans, 8 μM
FTRKFLKFLHL [K-17]	S. mutans, 8 μM

tested on: bacteria, fungi, and/or yeasts; assay: not given; assay type: binding; settings: microorganism(s) listed as target(s) of the targeting peptide; wrapped target lists given cell by cell

Substance	Target(s)
PF-S003 (ALALLKQDLLNFEGRGRIITSTYLQFNEGCVP)	yeast and hyphal forms
PF-S018 (GMPQIPRLRI)	yeast and hyphal forms
PF-S024 (SKRGRKRKDRRKKKANHGKRPNS)	Corynebacteria spp.
Rv1535 (DPLVDGAARLLSIPLRHLYAALWRVGLLEVQA)	C. albicans
Rv2369c (VRQVPVDRPESRHQKPGDVPRDPRC)	C. albicans
Rv2561 (QHQCPGMRPAPADAPEVPHAARADQKRPSLRL)	C. albicans
Rv2660c (RSPDFVDETAGQSWCAILGLNQFH)	C. albicans
Rv3760 (GLITVFAGTARILQLRRAAKKTHAAALR)	C. albicans
TT-305 (ARNALNMRDVPVDAAIIGIIDGMDEE)	F. nucleatum
TT-306 (KILNEAEGKLLKVIEKNGEIDIEEI)	F. nucleatum
TT-307 (NGDKKAKEELDKWDEVIKELNIQF)	F. nucleatum
TT-308 (GLVIIPNLIALIILFSQVRQQTKDYFSNPKLSSR)	F. nucleatum
TT-309 (EPLPLTKYDKKDTEMKKVFKEILAGKVGYEKEEE)	F. nucleatum
TT-310 (TKLKKNNKLLSAKKENTLHTKDK)	F. nucleatum,
TT-311 (AIFDAMHNL)	S. mutans, S. sobrinus

same assay, conditions: microorganism(s) that the targeting peptide binds, as listed in Table 2

Substance	Target(s)
PF-789 (PRGAQSGHG)	Mycobacteria spp.
PF-790 (PAGPDHLDQRDHR)	Mycobacteria spp.
PF-791 (IFLTTQNTDYSEHNAA)	S. mutans
PF-792 (ALHASGIQAI)	S. mutans
PF-794 (NLYFENQGN)	S. mutans
PF-795 (ALHKSGIQVIADWVPDQIYN)	S. mutans
PF-796 (YTQSNIPTAYALMLSNKDSI)	S. mutans
PF-797 (WYYFDNNGYM)	S. mutans
PF-798 (ALHSKGIKVMADWVPDQMYA)	S. mutans
PF-799 (YTHYNTALSYALLLTNKSSVP)	S. mutans
PF-800 (WYYFDNNGYM)	S. mutans
PF-C003 (FCSVDHDVITIAADHVKQGAEA)	A. naeslundii, P. gingivalis, S. mutans
PF-C008 (AQPRRTWLVNFGEVPSPGLTNDGMPDH)	A. naeslundii
PF-C034 (HPMPITVRSRKPGPLTAPSEH)	S. mutans, E. coli
PF-C045 (FREGMGWPLSNEGSPTAPLPKHRNQV)	A. naeslundii, T. denticola
PF-C050 (QGLARPVLRRIPL)	A. naeslundii, S. mutans
PF-C052 (SRFRNGV)	A. naeslundii, F. nucleatum, S. mutans
PF-C055 (YNLSIYIYFLHTITIAGLITLPFII)	A. naeslundii, F. nucleatum, P. gingivalis,; also recorded: S. mutans
PF-C057 (YFWWYWVQDCIPYKNNEVWLELSNNMK)	A. naeslundii, F. nucleatum, P. gingivalis,; also recorded: S. mutans
PF-C058 (FETGFGDGYYMSLWGLNEKDEVCKVVIPFINPELID)	A. naeslundii, F. nucleatum, P. gingivalis,; also recorded: S. mutans
PF-C061 (TLNYKKMFFSVIFLLGLNYLICNSPLFFKQIEF)	A. naeslundii, F. nucleatum, P. gingivalis,; also recorded: S. mutans, T. denticola
PF-C062 (PLARATEVVATLFIICSLLLYLTR)	A. naeslundii, F. nucleatum, P. gingivalis,; also recorded: S. mutans, T. denticola
PF-C063 (SHFRKGD)	A. naeslundii, F. nucleatum, S. mutans
PF-C064 (DEEALEMGANLYAQFAIDFLNSKK)	A. naeslundii, F. nucleatum, P. gingivalis,; also recorded: S. mutans, T. denticola
PF-C065 (DEERYSDSYFLKEKVFYLILALFLILFHQKYLYFLEIITI)	A. naeslundii, F. nucleatum, P. gingivalis,; also recorded: S. mutans

Substance	Target(s)
PF-C068 (LNLFASI)	A. naeslundii, F. nucleatum, S. mutans
PF-C069 (NALMLREMQLAKNIKVEVTDVLSNKKYC)	A. naeslundii, F. nucleatum, P. gingivalis,; also recorded: S. mutans, T. denticola
PF-C071 (QVIVKIL)	A. naeslundii, F. nucleatum, S. mutans
PF-C072 (KKMFSLIRKVNWIFFILFIVLDLTNVFPLIRTILFAILSRQ)	A. naeslundii, F. nucleatum, P. gingivalis,; also recorded: S. mutans, T. denticola
PF-C075 (KALVISVFAIVFSIIFVKFFYWRDKK)	A. naeslundii, F. nucleatum, P. gingivalis,; also recorded: S. mutans, T. denticola
PF-C080 (INIPGLF)	A. naeslundii, F. nucleatum, S. mutans
PF-C084 (FFSVIFLFGLNYLICNSPLFNILR)	A. naeslundii, F. nucleatum, P. gingivalis,; also recorded: S. mutans
PF-C085 (KKFKIFVIINWFYHKYIILNFEENF)	A. naeslundii, F. nucleatum, P. gingivalis,; also recorded: S. mutans, T. denticola
PF-C086 (ELFFTILSDCNELFLLHLLQQPLFYIKKGK)	A. naeslundii, F. nucleatum, P. gingivalis,; also recorded: S. mutans, T. denticola
PF-C088 (DIANNILNSVSERLIIA)	A. naeslundii, F. nucleatum, P. gingivalis,; also recorded: S. mutans, T. denticola
PF-C091 (ASNTPRFVRLTLFNFYSKIWNVTHLFLFNNL)	A. naeslundii, F. nucleatum, P. gingivalis,; also recorded: S. mutans, T. denticola
PF-C093 (EKLGTMV)	A. naeslundii, F. nucleatum, S. mutans
PF-C095 (LLALNMNEDTYYFELFFIFDNQNKKWLIFDLKERG)	A. naeslundii, F. nucleatum, P. gingivalis,; also recorded: S. mutans
PF-C098 (PETKGKVSAFVFGIVVANVIAVVYILYMLREIGIIQ)	A. naeslundii, F. nucleatum, P. gingivalis,; also recorded: S. mutans, T. denticola
PF-C120 (ASLSTMTFKVMELKELIILLCGLTMLMIQTEFV)	A. naeslundii, F. nucleatum, P. gingivalis,; also recorded: S. mutans, T. denticola
PF-C131 (QWIVAKREIRMHIYCHISVIHVIIFFG)	A. naeslundii, F. nucleatum, P. gingivalis,; also recorded: S. mutans
PF-C134 (NELMKYPATLTATATTPGIKYSHLCSVCL)	A. naeslundii, F. nucleatum, P. gingivalis,; also recorded: S. mutans, T. denticola
PF-C135 (KNTHAYLRVLRLSSLILSYQASVYPLFAYLCQQKDY)	A. naeslundii, F. nucleatum, P. gingivalis,; also recorded: S. mutans
PF-C136 (LILSYQASVYPLFAYLCQQKDY)	A. naeslundii, F. nucleatum, P. gingivalis,; also recorded: S. mutans, T. denticola
PF-C137 (QRMYWFKRGFETGDFSAGDTFAELK)	A. naeslundii, F. nucleatum, P. gingivalis,; also recorded: S. mutans
PF-C139 (LLASHPERLSLGVFFVYRVLHLLLENT)	A. naeslundii, F. nucleatum, P. gingivalis,; also recorded: S. mutans, T. denticola
PF-C142 (DFPPLSFFRRRFHAYTAPIDNFFGANPF)	A. naeslundii, F. nucleatum, P. gingivalis,; also recorded: S. mutans, T. denticola
PF-C143 (VVFGGGDRLV)	A. naeslundii, F. nucleatum, P. gingivalis,; also recorded: S. mutans, T. denticola
PF-C145 (YGKESDP)	A. naeslundii, F. nucleatum, P. gingivalis,; also recorded: S. mutans, T. denticola
PF-C160 (AASGFTYCASNGVWHPY)	F. nucleatum

Substance	Target(s)
PF-C180 (TVEELDKAFTWGAAAALAIGVIAINVGLAAGYCYNNNDVF)	F. nucleatum, P. gingivalis, S. mutans,; also recorded: T. denticola
PF-C181 (KMRAGQVVFIYKLILVLLFYVLQKLFDLKKGCF)	P. gingivalis
PF-C194 (NTNDLLQAFELMGLGMAGVFIVLGILYIVAELLIKIFPVNN)	A. naeslundii, F. nucleatum, P. gingivalis,; also recorded: S. mutans, T. denticola
PF-C259 (AEIQPHCLSVL)	F. nucleatum, S. mutans
PF-C271 (FFPSYYSIIITYF)	A. naeslundii, F. nucleatum, P. gingivalis,; also recorded: S. mutans, T. denticola
PF-C273 (KNMLKRRMKQKRLFDEEDRLRVLSKYTKSYY)	A. naeslundii, P. gingivalis, S. mutans,; also recorded: T. denticola
PF-C281 (KKEKLLTAIRLQHRAEIRGYFTIFFLFFRI)	A. naeslundii, F. nucleatum, P. gingivalis,; also recorded: S. mutans, T. denticola
PF-C285 (FTIIELKKQKIKHGENNKKTAHPLNEPFCARA)	A. naeslundii, F. nucleatum, P. gingivalis,; also recorded: S. mutans, T. denticola
PF-C290 (GNVHPESDFHNLIQFIKTFLYFTIFFKYFL)	A. naeslundii, F. nucleatum, P. gingivalis,; also recorded: S. mutans, T. denticola
PF-C291 (HPFLTGTGCPLFLIFRLFFVKAYFSFTVF)	A. naeslundii, F. nucleatum, P. gingivalis,; also recorded: S. mutans
PF-S003 (ALALLKQDLLNFEGRGRIITSTYLQFNEGCVP)	S. epidermidis, M. luteus, P. mirabilis,; also recorded: E. coli, P. aeruginosa,; also recorded: C. albicans, MRSA, S. pneumoniae,; also recorded: E. faecalis, C. jeikeium,; also recorded: C. jejuni, M. smegmatis
PF-S004 (VLLNIFRTLLEFFSPSNAPGAEDVPLPDTQA)	S. epidermidis, MRSA, C. jeikeium
PF-S007 (VVAGVVLLTALAVGSKRKEKKQIKEIQRLLAATR)	S. epidermidis, MRSA
PF-S015 (IENLERGARRPP)	S. epidermidis, MRSA, C. jeikeium
PF-S018 (GMPQIPRLRI)	S. epidermidis, M. luteus, C. albicans,; also recorded: MRSA, E. faecalis, C. jeikeium,; also recorded: C. jejuni
PF-S023 (MAEDERRALKRRTNRGRTRTRKRITV)	S. epidermidis, MRSA
PF-S026 (TELKYNGEEYLLLTQRDILAVIEK)	S. epidermidis, MRSA, C. jeikeium
PF-S029 (TSDTQSQSPWLFDNADIVNIYPVQLMHSSDND)	M. luteus, P. mirabilis, E. coli, C. albicans,; also recorded: C. jeikeium, C. jejuni
PF-U (TFFRLFNRSFTQALGK)	S. mutans
PF-V (KFINGVLSQFVLERK)	S. mutans
PF-W (FIDSFIRSF)	S. mutans
PF-X (TFFRLFNRSFTQALGK)	S. mutans
PF-Y (FIKHFIHRF)	S. mutans
